Broadly, the IC50 is the concentration that gives 50% inhibition. By AC50 is commonly meant the midpoint of the concentration-response curve, whichever way the signal moves. As usually defined, the GI50 is the concentration giving 50% growth inhibition.

Each structure is given as a SMILES string. Where two headings read alike, the source gives them in different places.

One assay relates to Target C. Kind of assay: RT-qPCR splicing assay panel, Target C canonical junction (CJ) mRNA. In kind it is cell-based, human. The note with it: Homo sapiens. An outline of the steps: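 Cells are plated (A673 allowed 24 h to adhere), dosed with an 11-point 3-fold series topping at 10 uM final, and incubated 24 h at 37 °C. Lysis is followed by cDNA synthesis and qPCR of the CJ transcript, normalized to a housekeeping gene.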

In a further assay the test system is MYB mRNA. Kind of assay: RT-qPCR splicing assay, MYB canonical junction (CJ) and alternative junction (AJ) mRNA. The format is cell-based, human. The note with it: Homo sapiens; for AC50: increase in MYB alternative junction (AJ) mRNA, read-out: MYB AJ AC50. An outline of the steps:
(§1)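 Splicing switches were read by TaqMan RT-qPCR on lysates, quantifying exon-exon junctions of the canonical and alternative-exon isoforms. Lysates came from K562 (GAPDH/GUSB reference) or A673 (PPIA reference) cells exposed 24 h to compound in 11 threefold steps from 10 uM, with DMSO ≤0.25%.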
For orientation: Real-time PCR tracks product formation cycle by cycle.

The test system of the next assay is HTT mRNA. The assay is described as follows: RT-qPCR splicing assay, HTT canonical junction (CJ) and alternative junction (AJ) mRNA. In kind it is cell-based, human. The settings on record: Homo sapiens; for AC50: increase in HTT alternative junction (AJ) mRNA, read-out: HTT AJ AC50. An outline of the steps:
as §1

Assay [1] relates to K562 (human chronic myelogenous leukemia) cells. The assay is described as follows: Cell Titer Glo 2.0 cell viability assay. In kind it is cell-based. The note with it: Homo sapiens, K562, 72 h, K562 cells, 72 hours, Cell Titer Glo 2.0; read-out: K562 GI50. A general note: ATP-based viability assays read luminescence as a measure of living cells.
The mark [2] stands for this setting: canonical junction qPCR panel, Table 5, read-out: Target C (decrease in CJ mRNA levels, IC50).
[3] abbreviates: canonical junction qPCR panel, Table 5, read-out: MYB (decrease in CJ mRNA levels, IC50).
The mark [4] stands for this setting: decrease in MYB canonical junction (CJ) mRNA, RT-qPCR, read-out: MYB CJ IC50.
The mark [5] stands for this setting: decrease in HTT canonical junction (CJ) mRNA, RT-qPCR, read-out: HTT CJ IC50.
Where [6] appears, read: canonical junction qPCR panel, Table 5, read-out: HTT (decrease in CJ mRNA levels, IC50).
The mark [7] stands for this setting: Table 5 panel, canonical junction qPCR, compound concentration having 50% response in CJ decrease, read-out: Target C IC50 (decrease in CJ mRNA levels).
Setting [8] is: Table 5 panel, canonical junction qPCR, compound concentration having 50% response in CJ decrease, read-out: MYB IC50 (decrease in CJ mRNA levels).
The mark [9] stands for this setting: Table 5 panel, canonical junction qPCR, compound concentration having 50% response in CJ decrease, read-out: HTT IC50 (decrease in CJ mRNA levels).

Consider `Cc1c(O)c(-c2ncc3c(=O)n(C4CCNC4)ccc3n2)cc2cn(C)nc12` (stereo in doubt) [Compound 1439, (6R)-2-(6-hydroxy-2,7-dimethyl-indazol-5-yl)-6-pyrrolidin-3-yl-pyrido[4,3-d]pyrimidin-5-one], for which the IC50 with Target C (setting [2]) was greater than 10 µM; with MYB mRNA (setting [3]), 0.1 to 1 µM; in the assay with MYB mRNA (setting [4]) it was 0.1 to 1 µM; in the assay on HTT mRNA (setting [5]), greater than 10 µM; with HTT mRNA (setting [6]) it was 1 to 10 µM. For the same compound, the results for the AC50 in the assay on MYB mRNA (RT-qPCR) and with HTT mRNA (RT-qPCR) were 0.1 to 1 µM and 1 to 10 µM, respectively. Besides, in assay [1], the GI50 lay within 0.1 to 1 µM.
As to `Cc1c(O)c(-c2ncc3c(=O)n(C4CCNC4)ccc3n2)cc2cn(C)nc12` (stereo in doubt) [Compound 1440, (6S)-2-(6-hydroxy-2,7-dimethyl-indazol-5-yl)-6-pyrrolidin-3-yl-pyrido[4,3-d]pyrimidin-5-one], the IC50 in the assay with Target C (setting [2]) was greater than 10 µM; with MYB mRNA (setting [3]), 0.1 to 1 µM; with MYB mRNA (setting [4]), 0.1 to 1 µM; with HTT mRNA (setting [5]), greater than 10 µM; with HTT mRNA (setting [6]) it was greater than 10 µM. Moreover, the AC50 with MYB mRNA (RT-qPCR) is 0.1 to 1 µM; with HTT mRNA (RT-qPCR), greater than 10 µM. Moreover, in assay [1], the GI50 lay within 0.1 to 1 µM.
In the case of `Cc1c(O)c(-c2ncc3c(=O)n([C@@H]4CC5CC4CN5)ccc3n2)cc2cn(C)nc12` (stereo in doubt) [Compound 1443, 6-[(1R,4R,5R)-2-azabicyclo[2.2.1]heptan-5-yl]-2-(6-hydroxy-2,7-dimethyl-indazol-5-yl)pyrido[4,3-d]pyrimidin-5-one], the IC50 in the assay with Target C (setting [2]) is 1 to 10 µM; with MYB mRNA (setting [3]), 0.1 to 1 µM; with MYB mRNA (setting [4]), 0.1 to 1 µM; in the assay with HTT mRNA (setting [5]) it was 1 to 10 µM; in the assay with HTT mRNA (setting [6]), 1 to 10 µM. Besides, the AC50 in the assay on MYB mRNA (RT-qPCR) lay within 0.1 to 1 µM; in the assay on HTT mRNA (RT-qPCR), 1 to 10 µM. For the same compound, the GI50 in assay [1] is 0.1 to 1 µM.
Consider `Cc1c(O)c(-c2ncc3c(=O)n(C4C[C@H]5C[C@@H]4CN5)ccc3n2)cc2cn(C)nc12` (stereo in doubt) [Compound 1444, 6-[(1R,4R,5R)-2-azabicyclo[2.2.1]heptan-5-yl]-2-(6-hydroxy-2,7-dimethyl-indazol-5-yl)pyrido[4,3-d]pyrimidin-5-one], for which the concentration for half-maximal inhibition (IC50) with Target C (setting [2]), in the assay with MYB mRNA (setting [3]), in the assay on MYB mRNA (setting [4]), in the assay with HTT mRNA (setting [5]) and with HTT mRNA (setting [6]) was 0.1 to 1 µM each time. Moreover, the AC50 in the assay on MYB mRNA (RT-qPCR) and in the assay with HTT mRNA (RT-qPCR) was 0.1 to 1 µM each time. For the same compound, the GI50 in assay [1] lay within 0.1 to 1 µM.
On to `Cc1c(O)c(-c2ncc3c(=O)n([C@@H]4C[C@H]5C[C@@H]4CN5)ccc3n2)cc2cn(C)nc12` (stereo in doubt) [Compound 1446, 6-[(1R,4R,5R)-2-azabicyclo[2.2.1]heptan-5-yl]-2-(6-hydroxy-2,7-dimethyl-indazol-5-yl)pyrido[4,3-d]pyrimidin-5-one], for which the IC50 in the assay with Target C (setting [2]) was greater than 10 µM; in the assay with MYB mRNA (setting [3]), 1 to 10 µM; in the assay with MYB mRNA (setting [4]) it was 1 to 10 µM; in the assay on HTT mRNA (setting [5]), greater than 10 µM; with HTT mRNA (setting [6]) it was greater than 10 µM. Further, the AC50 was 1 to 10 µM in the assay with MYB mRNA (RT-qPCR) and greater than 10 µM in the assay with HTT mRNA (RT-qPCR). Besides, the GI50 in assay [1] is 0.1 to 1 µM.
`Cn1cc2cc(-c3ccc4c(=O)n(C5CCNCC5)cnc4c3)ccc2n1` [Compound 182]: the IC50 in the assay on Target C (setting [7]) fell in the range of 1 to 10 µM; in the assay with MYB mRNA (setting [8]), 0.1 to 1 µM; in the assay with MYB mRNA (setting [4]), 0.1 to 1 µM; with HTT mRNA (setting [5]), 1 to 10 µM; with HTT mRNA (setting [9]), 1 to 10 µM. Moreover, the AC50 with MYB mRNA (RT-qPCR) fell in the range of 0.1 to 1 µM; in the assay with HTT mRNA (RT-qPCR), 1 to 10 µM. In addition, in assay [1], the GI50 lay within 0.1 to 1 µM.
`Cc1cn2nc(-c3ccc4c(=O)n(C5CCNCC5)ncc4c3)cc(C)c2n1` [Compound 186]: the IC50 with Target C (setting [7]) is 0.1 to 1 µM; in the assay with MYB mRNA (setting [8]), 0.1 to 1 µM; in the assay with MYB mRNA (setting [4]), 0.1 to 1 µM; in the assay on HTT mRNA (setting [5]) it was less than 0.1 µM; in the assay on HTT mRNA (setting [9]) it was less than 0.1 µM. Besides, the AC50 in the assay with MYB mRNA (RT-qPCR) and in the assay on HTT mRNA (RT-qPCR) was less than 0.1 µM in each case. The GI50 in assay [1] was 0.1 to 1 µM.
